Assay [1] deals with T1, HIV reverse transcriptase (Human immunodeficiency virus type 1 group M subtype B, UniProt P04585).
T1 construct: 0.05 units of HIV reverse transcriptase (Amersham T3610Y); purchased Amersham T3610Y
As to the kind of experiment: Reverse transcriptase inhibition assay with streptavidin-coated polystyrene europium beads and CCD imaging. The format is biochemical. As to the method: The reverse transcriptase enzyme SPA assay (Amersham NK8972) is a homogeneous assay system which uses a biotinylated DNA/RNA oligonucleotide enzyme substrate which is captured on streptavidin PVT SPA beads for quantification. In this assay, streptavidin-coated organic chelate beads prepared from polystyrene (PST) containing europium were used and the inhibition of reverse transcriptase by aurintricarboxylic acid determined.
Biotinylated, ready annealed primer/template was added to the wells of a white microplate. This was followed by [^3H]TTP (Amersham TRK576) in 127 nM mixture of dATP, dCTP, dGTP, and TTP buffered in tris/HCl pH 8.0, 80 mM KCl, 10 mM MgCl2, 10 mM DTT and 0.05% w/v Nonidet P40. Aurintricarboxylic acid at concentrations between 0.05 and 1 μM was added and the reactions were initiated by the addition of 0.05 units of HIV reverse transcriptase (Amersham T3610Y). Plates were incubated at 37° C. for 20 minutes and were terminated with the addition of stop reagent. 0.1 mg of streptavidin coated PST beads was added and the plates were incubated overnight at room temperature. The signal generated was detected using the CCD imaging system.

The target in assay [2] is T1, HIV reverse transcriptase. As to the kind of experiment: Reverse transcriptase enzyme SPA assay (conventional SPA, streptavidin PVT SPA beads). The format is biochemical. The source says:
The reverse transcriptase enzyme SPA assay (Amersham NK8972) is a homogeneous assay system which uses a biotinylated DNA/RNA oligonucleotide enzyme substrate which is captured on streptavidin PVT SPA beads for quantification. […]

This is an account of results in patent publication US7214539B2, “Scintillation proximity test” (GE Healthcare Limited, priority 1997, dated 2007).

The IC50 is the midpoint of a concentration-inhibition curve. Low values mean inhibition by little substance, high ones a need for much substance. As for `O=C(O)C1=CC(=C(c2ccc(O)c(C(=O)O)c2)c2ccc(O)c(C(=O)O)c2)C=CC1=O` [aurintricarboxylic acid], the half-maximal inhibitory concentration (IC50) was 230 nM in assay [1] and 180 nM in assay [2]. The “inhibition of reverse transcriptase activity” value in assay [1] (1 μM of inhibitor, PST beads, CCD imaging) is 85%.
